Experimental data reported in patent US7202239B2, “Cyclohexylphenyl carboxamides tocolytic oxytocin receptor antagonists” (Wyeth, priority 2001, dated 2007).

How the values were obtained:
[1] = target: human V2 vasopressin receptor subtype (Homo sapiens, UniProt P30518); assay: Vasopressin binding in CHO cell membranes expressing human vasopressin V2 subtype receptors; conditions: [3H]arginine vasopressin; for inhibition at 0.1 µM: 100 nM; for IC50: value in parentheses
Excerpt: Vasopressin Binding in Chinese Hamster Ovary Cell Membranes Expressing Human Vasopressin V2 Subtype Receptors
Chinese Hamster Ovary (CHO) cells stably transfected with the human V2 subtype receptors were obtained from M. Thibonnier, Case Western Reserve University School of Medicine, Cleveland, Ohio.
A. Passaging and Amplification of Cells:
CHO cells transfected with the human vasopressin V2 subtype receptors obtained from M. Thibonnier (pZeoSV vector) are allowed to grow to confluency (approx. >90%) in T-150 flasks under sterile conditions, in a cell culture medium of F-12 Nutrient Mixture (HAM) with L-glutamine (Gibco Cat. # 11765-054) containing 15 mM HEPES (Gibco Cat. # 15630-080), 1% antibiotic/antimycotic (add 5 mL 100×, Gibco Cat. # 15240-062 per 500 mL F-12), 250 μg/mL Zeocin (add 1.25 mL of 100 mg/mL Invitrogen R-250-01 per 500 mL F-12) and 10% Fetal Bovine Serum (Qualified, heat inactivated, Gibco Cat. # 16140-063). The medium is removed by aspiration and the cells washed with 10 mL of Hank's Balanced Salt solution (Gibco Cat. # 14175-095). The salt solution is removed by aspiration and the cells trypsinized with 5 mL of trypsin-EDTA (0.05% trypsin, 0.53 mM EDTA-4Na, Gibco Cat. # 25300-070) for 1 min. The trypsin is removed by aspiration and the cells dislodged by tapping. Cell Culture medium (e.g. 30 mL for 1:30 split) is immediately added and mixed well to inactivate trypsin. 1 mL of detached cells is added to new culture flasks containing fresh Cell Culture medium (e.g. into 25 mL per T-150 flask), and mixed gently. The cells are incubated at 37° C. in 5% CO2. The medium is changed at 3 to 4 day interval (or as appropriate). The cells grow to confluency (approx. >75%–95%) within 7–8 days. All steps are done under sterile conditions. B. Membrane Preparation: The cells are washed twice gently with Hank's Balanced Salt solution (e.g. use 10 mL per T-150 flask). The excess solution is removed and the cells bathed for 15–30 min. in an enzyme-free Cell Dissociation Buffer (e.g. use 8 mL Hank's Based, Gibco Cat. # 13150-016 per T-150 flask) until cells are loosened. The contents are transferred to centrifuge tubes (50 mL) kept in an ice bath. All subsequent steps are done at 4° C. The tubes are centrifuged at 300× g for 15 min (1380 rpm on SORVAL, Model RT6000D, using the rotor for 50 mL tubes). The supernatant is discarded and the cells suspended in homogeneizing buffer(10 mM Tris-HCl containing 0.25 M sucrose and 1 mM EDTA, pH 7.4) ensuring that the volume of the buffer is about ten times the volume of the cell pellet. The cells are pooled into a centrifuge tube (50 mL) and homogenized with a Polytron at setting 6 for 10 sec. The homogenate is transferred into a Potter-Elvjehm homogeneizer and homogenized with 3 strokes. The homogenate is centrifuged at 1500×g for 60 min at 4° C. (3100 rpm using SORVAL, model RT6000D, using the rotor for 50 mL tubes). The pellet is discarded. The supernatant is centrifuged at 100,000×g for 60 min. at 4° C. (Beckman L8-80M ultracentrifuge; spin at 37,500 rpm with rotor type 70 Ti for 50 mL tubes; 38,000 rpm with type 80Ti for 15 mL tubes; or 35,800 rpm with rotor type 45Ti). The supernantant is discarded and the pellet suspended in 3 to 4 mL of Tris buffer (50 mM TRIS-HCl, pH 7.4). The protein content is estimated by the Bradford or Lowry method. The volume of the membrane suspension is adjusted with the membrane buffer (50 mM Tris-HCl containing 0.1% BSA and 0.1 mM PMSF) to give 3.0 mg/mL (or as appropriate) of protein. The membranes are aliquoted and stored at −70° C. C. Radioligand Binding Assay: In wells of a 96-well format microtiter plate, is added 90, 110 or 130 μL (to make up a final volume of 200 μL) of assay buffer containing 50 mM of Tris-HCl (pH 7.4), […], 1 mg % aprotinin, 1 mg % leupeptin, 2 mg % 1,10-phenanthroline, 10 mg % trypsin inhibitor, and 0.1 mM PMSF. The inhibitors are added on the day of the experiment. […]

Chain of human V2 vasopressin receptor subtype (P30518 whole entry): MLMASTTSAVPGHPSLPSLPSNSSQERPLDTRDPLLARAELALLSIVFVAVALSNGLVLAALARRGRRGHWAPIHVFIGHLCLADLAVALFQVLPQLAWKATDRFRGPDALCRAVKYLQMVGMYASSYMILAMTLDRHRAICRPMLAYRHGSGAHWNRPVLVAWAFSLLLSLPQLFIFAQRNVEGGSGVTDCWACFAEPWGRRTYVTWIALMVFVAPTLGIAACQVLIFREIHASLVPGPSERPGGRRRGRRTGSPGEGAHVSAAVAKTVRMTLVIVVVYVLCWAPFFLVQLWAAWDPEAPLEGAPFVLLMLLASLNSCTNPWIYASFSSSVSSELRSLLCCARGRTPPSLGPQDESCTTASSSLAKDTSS

inhibition at 0.1 µM [1] | melting point | IC50 [1] | SMILES
 | 216 to 218 °C | 477 nM | CN(C)/C=N/C(=O)c1ccc2n1Cc1ccccc1N(C(=O)c1ccc(C3CCCCC3)cc1)C2 [Example 17]
 | 128 to 131 °C | 294 nM | C/C(=N\C(=O)c1ccc2n1Cc1ccccc1N(C(=O)c1ccc(C3CCCCC3)cc1)C2)N(C)C [Example 18]
 | 182 to 183 °C | > 1000 nM | CN(C)NC(=O)c1ccc2n1Cc1ccccc1N(C(=O)c1ccc(C3CCCCC3)cc1)C2 [Example 19, 10-(4-Cyclohexyl-benzoyl)-N′-N′-dimethyl-10,11-dihydro-5H-pyrrolo[2,1-c][1,4]benzodiazepine-3-carbohydrazide]
11% | 237 to 240 °C |  | CN(C)/C=C/C(=O)c1ccc2n1Cc1ccccc1N(C(=O)c1ccc(C3CCCCC3)cc1)C2 [Example 20, (E)-1-[10-(4-Cyclohexyl-benzoyl)-10,11-dihydro-5H-pyrrolo[2,1-c][1,4]benzodiazepin-3-yl]-3-(dimethylamino)-2-propen-1-one]
 | 134 to 136 °C | > 1000 nM | CN1CCN(C(=O)c2ccc3n2Cc2ccccc2N(C(=O)c2ccc(C4CCCCC4)cc2)C3)CC1 [Example 24, [10-(4-Cyclohexyl-benzoyl)-10,11-dihydro-5H-pyrrolo[2,1-c][1,4]benzodiazepin-3-yl](4-methyl-1-piperazinyl)-methanone]
9% | 141 to 143 °C |  | Cc1ccccc1N1CCN(C(=O)c2ccc3n2Cc2ccccc2N(C(=O)c2ccc(C4CCCCC4)cc2)C3)CC1 [Example 27, [10-(4-Cyclohexyl-benzoyl)-10,11-dihydro-5H-pyrrolo[2,1-c][1,4]benzodiazepin-3-yl][4-(2-methylphenyl)-1-piperazinyl]-methanone]
15% | 133 to 136 °C |  | CN1CCCN(C(=O)c2ccc3n2Cc2ccccc2N(C(=O)c2ccc(C4CCCCC4)cc2)C3)CC1 [Example 30, [10-(4-Cyclohexyl-benzoyl)-10,11-dihydro-5H-pyrrolo[2,1-c][1,4]benzodiazepin-3-yl](4-methyl-[1,4]-diazepan-1-yl)-methanone]

More lines, now with the values behind:

SMILES | inhibition at 0.1 µM [1] | melting point | IC50 [1]
CN1CCN(C(=O)c2ccc3n2Cc2ccc(C(=O)O)cc2N(C(=O)c2ccc(C4CCCCC4)cc2)C3)CC1 [Example 3, 10-(4-Cyclohexyl-benzoyl)-3-[(4-methyl-1-piperazinyl)carbonyl]-10,11-dihydro-5H-pyrrolo[2,1-c][1,4]benzodiazepine-8-carboxylic acid] | -4% | 195 to 210 °C | 
CC(C)(C)c1ccc(C(=O)c2ccc3n2Cc2ccccc2N(C(=O)c2ccc(C4CCCCC4)cc2)C3)cc1 [Example 5, [4-(tert-Butyl)phenyl][10-(4-cyclohexyl-benzoyl)-10,11-dihydro-5H-pyrrolo[2,1-c][1,4]benzodiazepin-3-yl]methanone] | 2% | 143 to 145 °C | 
O=C(c1ccc(C2CCCCC2)cc1)N1Cc2ccc(C(=O)C(Cl)(Cl)Cl)n2Cc2ccccc21 [Example 7, 2,2,2-Trichloro-1-[10-(4-cyclohexyl-benzoyl)-10,11-dihydro-5H-pyrrolo[2,1-c][1,4]benzodiazepin-3-yl]-1-ethanone] | 10% | 172 to 174 °C | 
CC(=NNC(=O)c1ccc2n1Cc1ccccc1N(C(=O)c1ccc(C3CCCCC3)cc1)C2)N(C)C [Example 9, N′-{[10-(4-Cyclohexyl-benzoyl)-10,11-dihydro-5H-pyrrolo[2,1-c][1,4]benzodiazepin-3-yl]carbonyl}-N,N-dimethylethanehydrazonamide] |  | 164 to 175 °C | > 1000 nM
CN(C)C=NNC(=O)c1ccc2n1Cc1ccccc1N(C(=O)c1ccc(C3CCCCC3)cc1)C2 [Example 10, N′-{[10-(4-Cyclohexyl-benzoyl)-10,11-dihydro-5H-pyrrolo[2,1-c][1.4]benzodiazepin-3-yl]carbonyl}-N,N-dimethylhydrazonoformamide] |  | 167 to 190 °C | 1160 nM
NC(=O)c1ccc2n1Cc1ccccc1N(C(=O)c1ccc(C3CCCCC3)cc1)C2 [Example 16, 10-(4-Cyclohexyl-benzoyl)-10,11-dihydro-5H-pyrrolo[2,1-c][1,4]benzodiazepin-3-carboxamide] |  | 122 to 123 °C | > 1000 nM
